Earlier results on one compound are cited in article PMC3401542 (Bioorganic & medicinal chemistry, 2012).

The subject of this data set is N1 NAs. Conditions: read-out: inhibition (IC50) of N1 NAs; range over N1 NAs; ref [28]; cited from earlier work.

In the case of `CCC(CC)O[C@@H]1C=C(C(=O)O)C[C@H](N)[C@H]1NC(C)=O` [Compound 1c, oseltamivir carboxylate], the IC50 is 0.3 to 0.8 nM.

One may read the IC50 as the midpoint of a concentration-inhibition curve.
